Reference: article PMC8151276, “An Integrated Approach toward NanoBRET Tracers for Analysis of GPCR Ligand Engagement” (Molecules, 2021)
Values joined by “and” are separate entries in the source; they are usually repeats but may differ in a detail not shown here. Equal entries are not always repeated. Where two headings read alike, the source gives them in different places. Each block holds one compound with its values, some of them ahead of it.

How the values were obtained:
[1] = target: T1, CHRM3 (Homo sapiens, UniProt P20309); experiment: NanoBRET screen HiBiT-CHRM3 in HEK293; assay type: binding
T1 construct: purchased Promega (in-house HiBiT-GPCR construct library, NanoBRET)

[2] = target: T2, CCR5 (Homo sapiens, UniProt P51681); experiment: NanoBRET screen HiBiT-CCR5 in HEK293; assay type: binding
T2 construct: purchased Promega (in-house HiBiT-GPCR construct library, NanoBRET)
Procedure: (§1) Each tracer candidate was screened across the entire library of HiBiT-GPCR constructs using NanoBRET as the detection modality. As depicted in Figure 4A, the specificity of interactions was evaluated through decrease in BRET due to competitive displacement of a bound tracer by excess parental compound. Each tracer was analyzed for binding to each HiBiT-GPCR fusion in the absence and in the presence of competing parental compound. Briefly, HEK293 cells were transfected with HiBiT-GPCR constructs diluted into promoterless DNA to reduce expression and maximize translocation to the cell surface. Each tracer candidate was then screened at concentrations of 1 μM and 0.1 μM across cells expressing these fusions. Cells were treated for 1.5 h with tracer either alone or in the presence of 20 μM competing parental compound (i.e., control). BRET was measured upon addition of purified LgBiT and subsequent complementation with HiBiT genetically fused to a GPCR. The specificity of interactions was assessed through a decrease in BRET signal due to competitive displacement of the bound tracer. To further gauge the robustness of these interactions, the fold response over the control (i.e., BRETtracer/BRETcontrol) was calculated. We chose a 1.5-fold response, which translates to ≥7-fold signal over noise as the minimal threshold required to score an interaction as positive. […]. Below we highlight the screening results obtained for our exemplary fluorescent tracers based on Clozapine, Amitriptyline and AZD1283.
(§2) HiBiT-GPCR DNA constructs were diluted in 10 mM Tris pH 8 to a final concentration of 0.01 μg/μL, arrayed in 96-well plates and stored at −20 °C. For transfection, HEK293 cells were suspended in Opti-MEM (without phenol red) supplemented with 2% fetal bovine serum (Seradigm) and 100 units/mL penicillin–streptomycin (Gibco) at a final concentration of 220,000 cells/mL and dispensed into white 96-well plates at 90 μL/well. Subsequent transfections and screens were carried using an Agilent Bravo Automated Liquid Handling Platform. First, the 96-well HiBiT DNA arrays were diluted 25-fold in Opti-MEM (without serum or phenol red) to a final concentration of 0.0004 μg/μL and 20 μL of the diluted DNAs were transferred into new 96-well plates. Next, promoterless carrier DNA (1 μg/μL) was diluted 25-fold (0.04 μg/μL) and then dispensed into the diluted arrays at 20 μL/well. Following brief mixing, Viafect transfection reagent (Promega) diluted 16-fold into Opti-MEM was dispensed into the plates at 40 μL/well. After mixing by pipetting, plates were incubated for 10 min on the pipetting station deck. The DNA-transfection reagent complexes were then added to plates containing cells. To facilitate the screen, 10 μL of DNA-transfection reagent complexes were added in duplicates to the top 4 and bottom 4 rows, resulting in two identical 48-well arrays per plate. Plates with transfected cells were incubated for 18–20 h at 37 °C/5% CO2. A screen of each tracer across the entire library using two different concentrations requires duplicate plates of transfected cells. Depending on the number of tracers being screened, transfections can be scaled up using the same ratios. The next day, for each tracer, four 20× screening solutions in tracer dilution buffer (Promega) were prepared: two duplicates at final concentration of 20 μM and two duplicates at a final concentration of 2 μM. A competing unmodified compound was added to one of each duplicate at a final concentration of 400 μM. The four resulting solutions were diluted 4-fold in Opti-MEM without serum or phenol red to generate 5× solutions (5 µM and 0.5 µM tracer +/− 100 μM competing compound). To screen the library, a BioTek MultiFlo FX liquid dispenser was used to dispense 22.5 µL of tracer solution to the top 4 rows and 22.5 µL tracer + competing compound solution to the 4 bottom rows. Plates were briefly mixed on an orbital shaker and incubated for 1.5 h at room temperature. […]

[3] = target: T3, CHRM1 (Homo sapiens, UniProt P11229); experiment: NanoBRET screen HiBiT-CHRM1 in HEK293; assay type: binding
T3 construct: purchased Promega (in-house HiBiT-GPCR construct library, NanoBRET)
T3 sequence (P11229 1-460): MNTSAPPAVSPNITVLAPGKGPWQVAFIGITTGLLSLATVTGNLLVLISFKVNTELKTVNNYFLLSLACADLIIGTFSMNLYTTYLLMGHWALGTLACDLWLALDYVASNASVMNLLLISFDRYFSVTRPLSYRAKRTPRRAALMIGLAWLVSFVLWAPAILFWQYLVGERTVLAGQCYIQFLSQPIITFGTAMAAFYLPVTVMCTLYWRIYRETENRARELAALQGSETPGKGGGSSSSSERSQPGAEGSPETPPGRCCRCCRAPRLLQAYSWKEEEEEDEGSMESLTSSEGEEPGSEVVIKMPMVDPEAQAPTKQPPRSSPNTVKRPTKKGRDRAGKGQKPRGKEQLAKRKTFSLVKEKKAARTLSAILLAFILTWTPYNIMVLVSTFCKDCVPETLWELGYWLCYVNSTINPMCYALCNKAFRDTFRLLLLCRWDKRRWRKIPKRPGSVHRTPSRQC

[4] = target: T4, HRH1 (Homo sapiens, UniProt P35367); experiment: NanoBRET screen HiBiT-HRH1 in HEK293; assay type: binding
T4 construct: purchased Promega (in-house HiBiT-GPCR construct library, NanoBRET)

[5] = target: T5, OPRK1 (Homo sapiens, UniProt P41145); experiment: NanoBRET screen HiBiT-OPRK1 in HEK293; assay type: binding
T5 construct: purchased Promega (in-house HiBiT-GPCR construct library, NanoBRET)
Procedure: as §1, §2

[6] = tested on: 184 HiBiT-GPCRs from 51 families; experiment: NanoBRET screen, binding profile across the HiBiT-GPCR library; parameters: species or system human; details: screen at 1 μM and 0.1 μM tracer
Procedure: as §1, with “Below we highlight the screening results obtained for our exemplary fluorescent tracers based on Clozapine, Amitriptyline and AZD1283.” left out

T1 sequence (P20309 whole entry): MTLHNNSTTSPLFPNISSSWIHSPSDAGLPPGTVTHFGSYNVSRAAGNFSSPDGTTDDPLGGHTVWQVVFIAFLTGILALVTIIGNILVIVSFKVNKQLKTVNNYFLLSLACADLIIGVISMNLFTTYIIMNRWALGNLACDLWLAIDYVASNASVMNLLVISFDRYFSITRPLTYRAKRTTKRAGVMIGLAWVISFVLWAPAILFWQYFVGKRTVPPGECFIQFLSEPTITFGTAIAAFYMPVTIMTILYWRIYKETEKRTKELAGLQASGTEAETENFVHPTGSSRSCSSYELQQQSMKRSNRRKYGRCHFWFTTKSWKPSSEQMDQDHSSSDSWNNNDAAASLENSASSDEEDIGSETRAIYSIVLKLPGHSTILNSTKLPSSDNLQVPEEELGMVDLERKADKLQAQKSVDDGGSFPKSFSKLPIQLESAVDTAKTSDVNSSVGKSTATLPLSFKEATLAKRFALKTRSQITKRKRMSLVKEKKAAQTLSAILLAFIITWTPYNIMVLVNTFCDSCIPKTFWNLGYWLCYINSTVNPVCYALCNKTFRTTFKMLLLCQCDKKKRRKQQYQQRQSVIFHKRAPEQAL
T2 sequence (P51681 whole entry): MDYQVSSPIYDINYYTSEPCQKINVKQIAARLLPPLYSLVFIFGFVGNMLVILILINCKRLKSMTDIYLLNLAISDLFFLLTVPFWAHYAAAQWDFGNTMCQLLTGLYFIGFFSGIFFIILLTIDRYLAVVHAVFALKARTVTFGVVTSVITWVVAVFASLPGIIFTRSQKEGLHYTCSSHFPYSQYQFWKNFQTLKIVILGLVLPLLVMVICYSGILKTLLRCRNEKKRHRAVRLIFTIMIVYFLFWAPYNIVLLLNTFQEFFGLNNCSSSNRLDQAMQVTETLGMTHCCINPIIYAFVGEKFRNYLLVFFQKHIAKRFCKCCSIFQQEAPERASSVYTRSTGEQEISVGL
T5 sequence (P41145 whole entry): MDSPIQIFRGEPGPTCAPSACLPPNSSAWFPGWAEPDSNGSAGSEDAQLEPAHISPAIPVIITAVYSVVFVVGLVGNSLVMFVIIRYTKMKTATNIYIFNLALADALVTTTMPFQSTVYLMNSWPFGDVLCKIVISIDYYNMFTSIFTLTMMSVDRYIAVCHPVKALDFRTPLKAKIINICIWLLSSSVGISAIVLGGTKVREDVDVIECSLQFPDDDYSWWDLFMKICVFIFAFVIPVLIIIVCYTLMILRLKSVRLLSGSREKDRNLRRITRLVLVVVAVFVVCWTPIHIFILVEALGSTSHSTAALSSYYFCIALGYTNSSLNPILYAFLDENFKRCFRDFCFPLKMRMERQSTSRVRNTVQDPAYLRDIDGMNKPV
T4 sequence (P35367 whole entry): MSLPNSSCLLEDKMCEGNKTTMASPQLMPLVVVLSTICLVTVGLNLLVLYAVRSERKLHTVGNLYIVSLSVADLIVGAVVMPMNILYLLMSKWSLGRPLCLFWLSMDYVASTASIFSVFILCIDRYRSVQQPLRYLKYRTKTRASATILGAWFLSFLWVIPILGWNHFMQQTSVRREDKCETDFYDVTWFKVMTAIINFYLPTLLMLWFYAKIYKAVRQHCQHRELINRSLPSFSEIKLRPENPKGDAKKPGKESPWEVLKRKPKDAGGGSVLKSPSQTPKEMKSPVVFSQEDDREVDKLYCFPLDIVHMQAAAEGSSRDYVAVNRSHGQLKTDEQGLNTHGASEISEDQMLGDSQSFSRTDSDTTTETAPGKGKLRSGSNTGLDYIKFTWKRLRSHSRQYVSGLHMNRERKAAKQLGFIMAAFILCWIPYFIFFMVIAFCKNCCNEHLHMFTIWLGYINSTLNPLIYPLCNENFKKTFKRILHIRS

SMILES: COc1ccccc1N1CCN(CCCCN2C(=O)c3ccc(CNC(=O)CCOCCOCCOCCOCCNC(=O)CCc4ccc5n4[B-](F)(F)[N+]4=C(c6ccc[nH]6)C=CC4=C5)cc3C2=O)CC1 [NAN-190-2-NB590]
NanoBRET Fold Response ([1]; CHRM3, tracer 1μM): 0.99
NanoBRET Fold Response ([2]; CCR5, tracer 0.1μM): 0.95
NanoBRET Fold Response ([2]; CCR5, tracer 1μM): 1.03
NanoBRET Fold Response [3]: 1.02
NanoBRET Fold Response ([3]; CHRM1, tracer 1μM): 1.16
NanoBRET Fold Response ([4]; HRH1, tracer 0.1μM): 2.49
NanoBRET Fold Response ([4]; HRH1, tracer 1μM): 2.31
NanoBRET Fold Response ([5]; OPRK1, tracer 0.1μM): 1.02

SMILES: CC(C)N(CC[C@H](c1ccccc1)c1cc(CCNC(=O)CCOCCOCCOCCOCCNC(=O)CCc2ccc3n2[B-](F)(F)[N+]2=C(c4ccc[nH]4)C=CC2=C3)ccc1O)C(C)C [Tolterodine-2-NB590]
NanoBRET Fold Response ([1]; CHRM3, tracer 0.1μM): 1.67
NanoBRET Fold Response ([1]; CHRM3, tracer 1μM): 1.52
NanoBRET Fold Response ([2]; CCR5, tracer 0.1μM): 1.03
NanoBRET Fold Response ([2]; CCR5, tracer 1μM): 1.01
NanoBRET Fold Response [3]: 1.59 and 2.16
NanoBRET Fold Response ([4]; HRH1, tracer 0.1μM): 1.08
NanoBRET Fold Response ([4]; HRH1, tracer 1μM): 1.58
NanoBRET Fold Response ([5]; OPRK1, tracer 0.1μM): 1.12
NanoBRET Fold Response ([5]; OPRK1, tracer 1μM): 0.95

SMILES: CN(CCC=C1c2ccccc2CCc2ccccc21)C(=O)CCOCCOCCOCCOCCNC(=O)CCc1ccc2n1[B-](F)(F)[N+]1=C(c3ccc[nH]3)C=CC1=C2 [Amitriptyline-e-2-NB590]
Number of GPCRs with specific interactions (≥[…] response) [6]: no specific interactions
NanoBRET Fold Response ([2]; tracer at 1μM): 0.97
NanoBRET Fold Response ([5]; tracer at 1μM): 1.05

The remaining lines, values ahead:

NanoBRET Fold Response ([1]; CHRM3, tracer 0.1μM): 0.99
NanoBRET Fold Response ([1]; CHRM3, tracer 1μM): 1.04
NanoBRET Fold Response ([2]; CCR5, tracer 0.1μM): 1.00
NanoBRET Fold Response ([2]; CCR5, tracer 1μM): 1.11
NanoBRET Fold Response ([3]; CHRM1, tracer 0.1μM): 0.98
NanoBRET Fold Response ([3]; CHRM1, tracer 1μM): 1.35
NanoBRET Fold Response ([4]; HRH1, tracer 0.1μM): 0.91
NanoBRET Fold Response ([4]; HRH1, tracer 1μM): 1.08
NanoBRET Fold Response ([5]; OPRK1, tracer 0.1μM): 1.14
NanoBRET Fold Response ([5]; OPRK1, tracer 1μM): 1.07
SMILES: N#CN=C(NCCCOc1cccc(CN2CCCCC2)c1)NCCNC(=O)CCOCCOCCOCCOCCNC(=O)CCc1ccc2n1[B-](F)(F)[N+]1=C(c3ccc[nH]3)C=CC1=C2 [Aminopotentidine-2-NB590]

NanoBRET Fold Response ([1]; CHRM3, 0.1μM): 1.07
NanoBRET Fold Response ([1]; CHRM3, 1μM): 1.09
NanoBRET Fold Response ([2]; CCR5, 0.1μM): 1.02
NanoBRET Fold Response ([2]; CCR5, 1μM): 1.04
NanoBRET Fold Response ([3]; CHRM1, 0.1μM): 1.01
NanoBRET Fold Response ([3]; CHRM1, 1μM): 1.04
NanoBRET Fold Response ([4]; HRH1, 0.1μM): 1.05
NanoBRET Fold Response ([4]; HRH1, 1μM): 0.92
NanoBRET Fold Response ([5]; OPRK1, 0.1μM): 0.98
NanoBRET Fold Response ([5]; OPRK1, 1μM): 0.99
SMILES: CCOC(=O)c1cc(C#N)c(N2CCC(C(=O)NS(=O)(=O)Cc3ccccc3/C=C/C(=O)NCCNC(=O)CCc3ccc4n3[B-](F)(F)[N+]3=C(c5ccc[nH]5)C=CC3=C4)CC2)nc1C [AZD1283-1-NB590]

NanoBRET Fold Response ([1]; 0.1μM tracer): 1.05
NanoBRET Fold Response ([1]; 1μM tracer): 0.96
NanoBRET Fold Response ([2]; 0.1μM tracer): 1.29
NanoBRET Fold Response ([2]; 1μM tracer): 0.63
NanoBRET Fold Response ([3]; 0.1μM tracer): 1.17
NanoBRET Fold Response ([3]; 1μM tracer): 0.93
NanoBRET Fold Response ([4]; 0.1μM tracer): 1.14
NanoBRET Fold Response ([4]; 1μM tracer): 1.14
NanoBRET Fold Response ([5]; 0.1μM tracer): 0.92
NanoBRET Fold Response ([5]; 1μM tracer): 0.92
SMILES: COc1ccc2c(n1)c(CCNC(C)=O)cn2CCNC(=O)CCc1ccc2n1[B-](F)(F)[N+]1=C(c3ccc[nH]3)C=CC1=C2 [Azamelatonin-1-NB590]

NanoBRET Fold Response ([1]; CHRM3, 0.1μM tracer): 1.06
NanoBRET Fold Response ([1]; CHRM3, 1μM tracer): 0.92
NanoBRET Fold Response ([2]; CCR5, 0.1μM tracer): 1.07
NanoBRET Fold Response ([2]; CCR5, 1μM tracer): 0.90
NanoBRET Fold Response ([3]; CHRM1, 0.1μM tracer): 1.09
NanoBRET Fold Response ([3]; CHRM1, 1μM tracer): 0.98
NanoBRET Fold Response ([4]; HRH1, 0.1μM tracer): 4.67
NanoBRET Fold Response ([4]; HRH1, 1μM tracer): 4.78
NanoBRET Fold Response ([5]; OPRK1, 0.1μM tracer): 1.01
NanoBRET Fold Response ([5]; OPRK1, 1μM tracer): 0.97
SMILES: O=C(CCOCCOCCOCCOCCNC(=O)CCc1ccc2n1[B-](F)(F)[N+]1=C(c3ccc[nH]3)C=CC1=C2)NCCCN1CCN(C2=Nc3cc(Cl)ccc3Nc3ccccc32)CC1 [Clozapine-a-2-NB590]
